# Reference: patent publication US11426375B2, “Substituted bisphenyl butanoic ester derivatives as NEP inhibitors” (NOVARTIS AG, priority 2019, dated 2022)
# Columns and labels:
# [1] = tested on: DSS (Dahl Salt Sensitive) rats; test: In vivo efficacy study on blood pressure in DSS rats (telemetry; systolic and diastolic pressure); settings: for Systolic blood pressure, mean / Diastolic blood pressure, Mean: Compound I-1 50 mg/kg; for Systolic blood pressure, mean: alone or combined, QD PO
# From the text: An in vivo study ascertains the effects on blood pressure in DSS (Dahl Salt Sensitive) rats. The DSS hypertensive rat model is a model of hypertension that is sensitive to dietary salt (NaCl), see for example Rapp (1982) Hypertension 4:753-763 and Hegde et al. BMC Pharmacology 2011, 11 (Suppl 1):P33. Under pentobarbital sodium anesthesia, a DSI (Data Sciences International, St. Paul, Minn.) telemetric probe is implanted. The transducer is inserted into abdominal aorta, and the transmitter is implanted into abdominal cavity. During postoperative recovery period, close observation is performed. Analgesics (Buprenorphine, 0.1-0.5 mg/kg, once per day for 1 day) and preventive antibiotics (Cephradine, 10˜15 mg/kg, ip., once per day for 3 days) are administered on a daily basis. Before the treatment period, all animals are fed with 8% high salt food for about 2 weeks. Test compound is formulated in 0.5% HPC and administered by oral gavage. Five groups of animals are treated as follows: 1. Vehicle, 0.5% HPC, QD, PO, N=5 2. Valsartan, 30 mg/kg, QD, PO, N=5 3. Compound I-1, 50 mg/kg, QD, PO, N=6 4. Compound I-1, 15 mg/kg+Valsartan, 30 mg/kg, QD, PO, N=5 5. Compound I-1, 50 mg/kg+Valsartan, 30 mg/kg, QD, PO, N=5 N is the number of animals. The mean arterial pressure, systolic pressure, diastolic pressure and heart rate after administration for each animal are measured. Interim results obtained before full study completion are shown in Tables 18 and 19 (full cohort of animals beyond day 7 were reduced due to some loss). Mean measurements of the systolic (Table 18) and diastolic (Table 19) blood pressures, for the baseline day prior to first treatment and for treatment days 1 and 7 only, in each treatment group, are shown. Measurements obtained every other hour only are shown.
# [2] = parameters: species or system Sprague Dawley rats; settings: rat, in vivo, po, 10 mg/kg
# Protocol: A parallel study design consisting of four groups with three animals per group was conducted to examine the pharmacokinetic properties of the compounds of the present disclosure.
# The drugs were administered to each group are as follows: compound I-1 (Group 1), compound I-2 (Group 2), compound I-3 (Group 3), and AHU377 (sacubitril) (Group 4). Each animal received a single 10 mg/kg (5 ml/kg) oral gavage dose of the specified study drug. The animal weights ranged from […] at the beginning of the study. Compound I-1, compound I-2, compound I-3, and AHU377 were formulated in 0.5% methylcellulose (400 cp) and 0.1% Tween 80 (w,v) in water was used as the vehicle. Water bath sonication was applied to facilitate dispersing for all four study drugs. Blood samples for pharmacokinetics analysis were collected at t=0.25, 0.5, 1, 2, 4, 8, and 24 hours (±5%) post dose administration. Plasma was prepared by collecting whole blood samples into tubes containing EDTA and NaF (final concentrations: ˜1 mg/mL (K2EDTA) and ˜2 mg/mL (NaF)). These tubes were kept in an ice bath prior to centrifugation at approximately 2,000 rcf for 10 minutes at approximately 5° C. To each resultant plasma sample, 50% phosphoric acid (v/v) was added to achieve a final concentration of 1% (v,v).
# [^13C4]-LBQ657 was added as an internal standard to the pharmacokinetic (PK) samples and calibration standards prior to analysis by LC-MS/MS. The LC-MS system consisted of an API6500+ mass spectrometer coupled to an Agilent 1290 HPLC system equipped with a CTC Pal autosampler. The mass spectrometer was operated in the positive ion mode with a TESI ion source.
# [3] = type: physicochemical; settings: pH 2
# Protocol: It was stable at pH of 4.7 and pH of 6.8 up to 70° C. for 3 days.
structure (smiles),measurement,setting,value
"CCOC(=O)[C@H](C)C[C@@H](Cc1ccc(-c2ccccc2)cc1)NC(=O)CCC(=O)N[C@@H](CC(C)C)C(=O)O [Compound I-1, (4-(((2S,4R)-1-([1,1′-biphenyl]-4-yl)-5-ethoxy-4-methyl-5-oxopentan-2-yl)amino)-4-oxobutanoyl)-L-leucine]","Systolic blood pressure, mean","[1]; Baseline day prior to first treatment, Hour 1, groups Valsartan 30 mg/kg",163.63
same,"Systolic blood pressure, mean","[1]; Baseline day prior to first treatment, Hour 3, groups Valsartan 30 mg/kg",159.24
same,"Systolic blood pressure, mean","[1]; Baseline day prior to first treatment, Hour 5, groups Valsartan 30 mg/kg",155.66
same,"Systolic blood pressure, mean","[1]; Baseline day prior to first treatment, Hour 7, groups Valsartan 30 mg/kg",154.92
same,"Systolic blood pressure, mean","[1]; Baseline day prior to first treatment, Hour 9, groups Valsartan 30 mg/kg",157.92
same,"Systolic blood pressure, mean","[1]; Baseline day prior to first treatment, Hour 11, groups Valsartan 30 mg/kg",162.87
same,"Systolic blood pressure, mean","[1]; Baseline day prior to first treatment, Hour 13, groups Valsartan 30 mg/kg",167.91
same,"Systolic blood pressure, mean","[1]; Baseline day prior to first treatment, Hour 15, groups Valsartan 30 mg/kg",167.33
same,"Systolic blood pressure, mean","[1]; Baseline day prior to first treatment, Hour 17, groups Valsartan 30 mg/kg",167.09
same,"Systolic blood pressure, mean","[1]; Baseline day prior to first treatment, Hour 19, groups Valsartan 30 mg/kg",169.48
same,"Systolic blood pressure, mean","[1]; Baseline day prior to first treatment, Hour 21, groups Valsartan 30 mg/kg",169.41
same,"Systolic blood pressure, mean","[1]; Baseline day prior to first treatment, Hour 23, groups Valsartan 30 mg/kg",161.71
same,"Diastolic blood pressure, Mean","[1]; Baseline day, Hour 1",111.95
same,"Diastolic blood pressure, Mean","[1]; Baseline day, Hour 3",107.76
same,"Diastolic blood pressure, Mean","[1]; Baseline day, Hour 5",104.17
same,"Diastolic blood pressure, Mean","[1]; Baseline day, Hour 7",102.18
same,"Diastolic blood pressure, Mean","[1]; Baseline day, Hour 9",105.63
same,"Diastolic blood pressure, Mean","[1]; Baseline day, Hour 11",111.89
same,"Diastolic blood pressure, Mean","[1]; Baseline day, Hour 13",116.86
same,"Diastolic blood pressure, Mean","[1]; Baseline day, Hour 15",115.85
same,"Diastolic blood pressure, Mean","[1]; Baseline day, Hour 17",116.42
same,"Diastolic blood pressure, Mean","[1]; Baseline day, Hour 19",117.36
same,"Diastolic blood pressure, Mean","[1]; Baseline day, Hour 21",116.95
same,"Diastolic blood pressure, Mean","[1]; Baseline day, Hour 23",109.93
same,"Diastolic blood pressure, Mean","[1]; Dosing day 1, Hour 1",115.05
same,"Diastolic blood pressure, Mean","[1]; Dosing day 1, Hour 3",106.99
same,"Diastolic blood pressure, Mean","[1]; Dosing day 1, Hour 5",104.66
same,"Diastolic blood pressure, Mean","[1]; Dosing day 1, Hour 7",106.82
same,"Diastolic blood pressure, Mean","[1]; Dosing day 1, Hour 9",108.88
same,"Diastolic blood pressure, Mean","[1]; Dosing day 1, Hour 11",114.90
same,"Diastolic blood pressure, Mean","[1]; Dosing day 1, Hour 13",116.00
same,"Diastolic blood pressure, Mean","[1]; Dosing day 1, Hour 15",117.42
same,"Diastolic blood pressure, Mean","[1]; Dosing day 1, Hour 17",118.42
same,"Diastolic blood pressure, Mean","[1]; Dosing day 1, Hour 19",122.21
same,"Diastolic blood pressure, Mean","[1]; Dosing day 1, Hour 21",115.68
same,"Diastolic blood pressure, Mean","[1]; Dosing day 1, Hour 23",111.09
same,"Diastolic blood pressure, Mean","[1]; Dosing day 7, Hour 1",118.61
same,"Diastolic blood pressure, Mean","[1]; Dosing day 7, Hour 3",109.11
same,"Diastolic blood pressure, Mean","[1]; Dosing day 7, Hour 5",108.96
same,"Diastolic blood pressure, Mean","[1]; Dosing day 7, Hour 7",114.22
same,"Diastolic blood pressure, Mean","[1]; Dosing day 7, Hour 9",126.44
same,"Diastolic blood pressure, Mean","[1]; Dosing day 7, Hour 11",129.02
same,"Diastolic blood pressure, Mean","[1]; Dosing day 7, Hour 13",131.34
same,"Diastolic blood pressure, Mean","[1]; Dosing day 7, Hour 15",126.20
same,"Diastolic blood pressure, Mean","[1]; Dosing day 7, Hour 17",127.80
same,"Diastolic blood pressure, Mean","[1]; Dosing day 7, Hour 19",124.88
same,"Diastolic blood pressure, Mean","[1]; Dosing day 7, Hour 21",116.93
same,"Diastolic blood pressure, Mean","[1]; Dosing day 7, Hour 23",120.18
same,effect on blood pressure,"[1]; DSS rats, as compared to animals treated with vehicle alone, interim results",trend for lower blood pressure
same,"Systolic blood pressure, mean","[1]; Dosing day 1, Hour 1, Valsartan 30 mg/kg",164.94
same,"Systolic blood pressure, mean","[1]; Dosing day 1, Hour 3, Valsartan 30 mg/kg",152.46
same,"Systolic blood pressure, mean","[1]; Dosing day 1, Hour 5, Valsartan 30 mg/kg",155.79
same,"Systolic blood pressure, mean","[1]; Dosing day 1, Hour 7, Valsartan 30 mg/kg",159.33
same,"Systolic blood pressure, mean","[1]; Dosing day 1, Hour 9, Valsartan 30 mg/kg",166.16
same,"Systolic blood pressure, mean","[1]; Dosing day 1, Hour 11, Valsartan 30 mg/kg",168.46
same,"Systolic blood pressure, mean","[1]; Dosing day 1, Hour 13, Valsartan 30 mg/kg",169.35
same,"Systolic blood pressure, mean","[1]; Dosing day 1, Hour 15, Valsartan 30 mg/kg",169.78
same,"Systolic blood pressure, mean","[1]; Dosing day 1, Hour 17, Valsartan 30 mg/kg",174.28
same,"Systolic blood pressure, mean","[1]; Dosing day 1, Hour 19, Valsartan 30 mg/kg",166.11
same,"Systolic blood pressure, mean","[1]; Dosing day 1, Hour 21, Valsartan 30 mg/kg",162.24
same,"Systolic blood pressure, mean","[1]; Dosing day 1, Hour 23, Valsartan 30 mg/kg",158.31
same,"Systolic blood pressure, mean","[1]; Dosing day 7, Hour 1, Valsartan 30 mg/kg",167.78
same,"Systolic blood pressure, mean","[1]; Dosing day 7, Hour 3, Valsartan 30 mg/kg",158.75
same,"Systolic blood pressure, mean","[1]; Dosing day 7, Hour 5, Valsartan 30 mg/kg",156.95
same,"Systolic blood pressure, mean","[1]; Dosing day 7, Hour 7, Valsartan 30 mg/kg",165.23
same,"Systolic blood pressure, mean","[1]; Dosing day 7, Hour 9, Valsartan 30 mg/kg",176.77
same,"Systolic blood pressure, mean","[1]; Dosing day 7, Hour 11, Valsartan 30 mg/kg",182.56
same,"Systolic blood pressure, mean","[1]; Dosing day 7, Hour 13, Valsartan 30 mg/kg",182.29
same,"Systolic blood pressure, mean","[1]; Dosing day 7, Hour 15, Valsartan 30 mg/kg",175.64
same,"Systolic blood pressure, mean","[1]; Dosing day 7, Hour 17, Valsartan 30 mg/kg",179.39
same,"Systolic blood pressure, mean","[1]; Dosing day 7, Hour 19, Valsartan 30 mg/kg",175.46
same,"Systolic blood pressure, mean","[1]; Dosing day 7, Hour 21, Valsartan 30 mg/kg",165.83
same,"Systolic blood pressure, mean","[1]; Dosing day 7, Hour 23, Valsartan 30 mg/kg",170.13
same,LBQ657 concentration-time profile,"[2]; male, Sprague-Dawley",flattened relative to AHU377
same,conversion to LBQ657,"[2]; male, Sprague-Dawley",nearly complete conversion to LBQ657
same,LBQ657 exposure (based on AUC values),[2],did not decrease relative to that of AHU377
same,tolerability,[2],very well tolerated
same,degradation in solution,[3]; 1 day,18.27%
same,solution stability under acidic conditions,[3],unstable
